Test results reported in the NIST ThermoML archive (doi:10.1021/je8009732).
Numbers after ± are expanded uncertainties.

Key:
[1] = refractive index (Na D-line) (dimensionless); conditions: 298.15 K; 101.33 kPa; Liquid; Standard Abbe refractometry
[2] = 298.15 K, 101.3 kPa, Liquid; for mass density: Vibrating tube method
[3] = refractive index (Na D-line) (dimensionless); xn = mol fraction of the nth substance listed; conditions: 298.15 K, 101.3 kPa, Liquid, Standard Abbe refractometry
[4] = xn = mol fraction of the nth substance listed; conditions: 298.15 K, 101.3 kPa, Liquid; for mass density: Vibrating tube method

CCOS(=O)(=O)[O-].CC[n+]1cccc(C)c1 [1-ethyl-3-methylpyridinium ethylsulfate]
Conditions | mass density [kg/m3] | refractive index | viscosity [mPa·s]
[1] | – | 1.50666 ± 0.0012 | –
[2] | 1222.2 ± 8.1 | – | 161.4 ± 27

CCOS(=O)(=O)[O-].CC[n+]1cccc(C)c1 [1-ethyl-3-methylpyridinium ethylsulfate] + CCCO
Conditions | mass density, [4] [kg/m3] | refractive index, [3] | viscosity, [4] [mPa·s]
x2 = 0 | 1222.2 ± 8.1 | 1.50666 ± 0.0012 | 161.4 ± 27
x2 = 0.0863 | 1208.44 ± 6.6 | 1.50223 ± 0.0011 | 126.4 ± 17
x2 = 0.1279 | 1201.22 ± 6 | 1.5002 ± 0.0011 | 112.4 ± 13
x2 = 0.2201 | 1183.56 ± 4.6 | 1.49524 ± 0.001 | 85.83 ± 7
x2 = 0.3243 | 1160.24 ± 3.4 | 1.48866 ± 0.00096 | 62.26 ± 2.6
x2 = 0.4177 | 1135.68 ± 2.4 | 1.48167 ± 0.0009 | 48.86 ± 2
x2 = 0.5126 | 1106.18 ± 1.6 | 1.47321 ± 0.00084 | 34.16 ± 1.3
x2 = 0.6093 | 1069.97 ± 1.1 | 1.4627 ± 0.00079 | 24.62 ± 0.93
x2 = 0.7176 | 1019.9 ± 0.71 | 1.44818 ± 0.00074 | 16.27 ± 0.61
x2 = 0.824 | 956.78 ± 0.57 | 1.4297 ± 0.0007 | 9.9 ± 0.38
x2 = 0.8834 | 913.04 ± 0.55 | 1.41684 ± 0.00069 | 7.027 ± 0.29
x2 = 0.9658 | 837.78 ± 0.53 | 1.39459 ± 0.00068 | 3.411 ± 0.15

CCCO [propan-1-ol]
Conditions | mass density [kg/m3] | refractive index | viscosity [mPa·s]
[1] | – | 1.3837 ± 0.00068 | –
[2] | 799.5 ± 0.53 | – | 2.017 ± 0.093

CCCO [propan-1-ol] + CCOS(=O)(=O)[O-].CC[n+]1cccc(C)c1
x1 = 1
Conditions | mass density [kg/m3] | refractive index | viscosity [mPa·s]
[3] | – | 1.3837 ± 0.00068 | –
[4] | 799.5 ± 0.53 | – | 2.017 ± 0.093
